Laboratory results published in patent publication US12291513B2, “Pyridinium derivatives made by hydrothermal synthesis for use as anolytes in electrochemical cells” (Wisconsin Alumni Research Foundation, priority 2021, dated 2025).
Read-outs that look alike come from different tables or passages of the source.

How the values were obtained:
Solubility in pure water = format: physicochemical; details: pure water, 18 °C, water, thermodynamic from solid
Procedure: A measured amount of Dex-Vi was partially dissolved in pure water. The solution was then centrifuged. The supernatant was decanted, and the volume was measured. The remainder of the solid was dried in a vacuum oven and weighed. Finally, the weight of the remaining Dex-Vi was subtracted from the initial added mass to obtain the amount dissolved in the supernatant, permitting calculation of the maximum soluble concentration.

Viscosity (rheometer) = format: physicochemical; details: for viscosity: pure water
Procedure: Viscosity measurements were carried out using an Ares G2 rheometer (TA Instruments) with an advanced Peltier system at 25° C.

[1] = Electrochemical impedance spectroscopy (EIS); format: physicochemical
Procedure: CV and EIS experiments were ran using a PalmSens4 potentiostat with the PSTrace software. Electrochemical experiments were performed in 1.0 M NaCl supporting electrolyte using 15 mM of active material at room temperature (18° C.). Formal potentials for the redox couples were estimated by taking the average potential between the cathodic and anodic peak. Diffusional behavior was investigated by varying the scan rate between 10-100 mV·s^−1 for the first electron reduction and 50-200 mV·s^−1 for the second electron reduction, and the diffusion constants of the reduced and oxidized states (D^R and D^O) were determined via the Randles-Sevcik equation assuming ideal reversible behavior (FIG. 12D). Potentiostatic EIS measurements were used for determination of a combined diffusional constant of the reduced and oxidized states (D^EIS) and of the standard electron kinetic rate constant (k^o). These EIS measurements were performed at the formal reduction potential (held for 30 seconds before measurement) in which the concentration of the two redox states at the electrode surface were assumed to be the same and equal to half of the initially prepared redox species concentration.
A glassy carbon working electrode (CH Instruments, 0.0707 cm^2), a saturated calomel reference electrode (SCE, CH Instruments, +0.241 V vs. SHE), and a platinum wire counter electrode were used for both CV and EIS measurements. The working electrode was polished with 1 μm, 0.3 μm, and 0.05 μm alumina slurry successively. All electrodes were rinsed with deionized water in between measurements.
Potentiostatic EIS measurements were taken at the formal potential in which the reduction and oxidation processes are at equilibrium and the concentrations of the reduced and oxidized states can be assumed equal. This permitted simple calculation of the standard kinetic rate constant (k^o) via Eqn. 2 where R is the ideal gas constant, T is temperature, n is number of electrons, RCT is the charge-transfer resistance, F is Faraday's constant, A is the electrode surface area in cm^2, and C is the concentration of either the oxidized or reduced form at the electrode surface in mole cm^−3 (which is assumed to be half of the initially prepared redox species concentration, C═C^O═C^R=0.5 Cinitial).
A combined diffusion coefficient of the reduced and oxidized state (D^EIS) can also be determined using Eqn. 3, where σ is the Warburg diffusional impedance variable and all other variables have the previously defined meaning.
RCT and σ can be determined by fitting the impedance spectrum to the ideal Randles equivalent circuit for a 3-electrode system where Ru is the uncompensated resistance between the working and reference electrode, RCT is the charge transfer resistance between the working electrode and the redox species, WD is the Warburg diffusional element, and CPE is the constant phase element that represents capacitive behavior of the working electrode.
The raw data was fitted based on this equivalent circuit using the Z-Fitting tool on the PSTrace software and with the Levenberg-Marquardt algorithm across the entire measured frequency range. For the second redox state, D2^EIS were 3.6×10^−6 cm^2·s^−1 and 3.8×10^−6 cm^2·s^−1 and k2^o were 0.13 cm·s^−1 and 0.23 cm·s^−1 for Dex-Vi and BTMAP-Vi, respectively.

[2] = Membrane permeability in H-cell; format: physicochemical; details: Selemion DSV membrane
Procedure: 0.33 M Dex-Vi in pure water was separated by an anion-exchange membrane (DSV) from 1 M NaCl in an H-cell. […] The cell was agitated on a shaker to partially simulate flow dynamics. Aliquots of the receiving end (1 M NaCl side) were taken every few days, and the removed volume was replaced with 1 M NaCl. The concentration of Dex-Vi in the aliquot was determined by measuring the absorbance at 285 nm using a UV-Vis spectrophotometer. The concentration as a function of time data was then used to calculate the permeability constant of Dex-Vi. (Kwabi, D. G. et al., Joule 2018, 2, 1894-1906)
Permeability was calculated using Eqn. 4 which follows Fick's Law, where P is the permeability in cm^2·s^−1, A is the membrane area in cm^2, t is elapsed time in seconds, Ct is the concentration (mol·cm^−3) of Dex-Vi on the receiving side at time t, C0 is the initial concentration of Dex-Vi on the donating side, Vo is the volume of one side of the H-cell, and l is the membrane thickness in cm.

Degradation in 1M KOH = format: physicochemical
[3] = Degradation kinetics in sodium hydroxide; details: one-and-one-half order overall
Source text: The chemical stability of the first redox processes of Dex-Vi was investigated using a symmetric, volumetrically-unbalanced flow cell inside an N2 glovebox.

C[N+](C)(C)CC(O)C[n+]1ccc(-c2cc[n+](CC(O)C[N+](C)(C)C)cc2)cc1 (stereo not drawn) [Dex-Vi, bis(3-trimethylammonio-2-hydroxy)propyl viologen tetrachloride]
solubility (Solubility in pure water; Example 2, read-out: Water Solubility): 1800 mM
solubility (Solubility in pure water; room temperature (~18° C.), read-out: maximum solubility): ~2000 mM
Viscosity at 1M, 25° C. (Viscosity (rheometer); 1M, 25° C.): 14.2 cP
viscosity (Viscosity (rheometer); 0.25 M): 1.1 cP
viscosity (Viscosity (rheometer); 0.50 M): 1.8 cP
viscosity (Viscosity (rheometer); 1.0 M): 4.7 cP
viscosity (Viscosity (rheometer); 1.5 M): 50 cP
EIS D ([1]; Example 2): 3.516E−06 cm^2/s
EIS i^0 ([1]; Example 2): 6.57E−04 A
EIS k^0 ([1]; Example 2): 0.0128 cm/s
k1^0 ([1]; Table 1): 0.05 cm/s
combined diffusion coefficient (D1^EIS) ([1]; first reduction): 3.9×10^−6 cm^2·s^−1
standard rate constant (k1^0) ([1]; first reduction): 0.05 cm/s
D2^EIS ([1]; second redox state): 3.6×10^−6 cm^2·s^−1
k2^o ([1]; second redox state): 0.13 cm/s
permeance [2]: 2.3×10^−11 cm^2·s^−1
Degradation in 1M KOH, k (Degradation in 1M KOH): 3.22e-06 s⁻¹
degradation rate constant k [3]: 2.3×10^−6 s^−1·M^−1/2
